The values that follow come from article PMC13031062 (Acta Pharmaceutica Sinica. B, 2025).

Read-outs that look alike come from different tables or passages of the source.

Test [1] addresses T1, acyl-CoA synthetase long-chain family member 3 (ACSL3) (Homo sapiens, UniProt O95573). The test can be described thus: LC-MS of OA-CoA formed by recombinant ACSL3. The class given is biochemical.
For test [2], the target named is T1, acyl-CoA synthetase long-chain family member 3 (ACSL3). The experiment in a line: microscale thermophoresis. The class given is binding.
Test [3] shares this target. The experiment in a line: microscale thermophoresis. Type of test: binding. This is another data set of the same source.
For test [4] the target is unchanged. The test can be described thus: microscale thermophoresis. Type of test: binding. The source holds these as a separate data set.

T1 sequence (O95573 whole entry): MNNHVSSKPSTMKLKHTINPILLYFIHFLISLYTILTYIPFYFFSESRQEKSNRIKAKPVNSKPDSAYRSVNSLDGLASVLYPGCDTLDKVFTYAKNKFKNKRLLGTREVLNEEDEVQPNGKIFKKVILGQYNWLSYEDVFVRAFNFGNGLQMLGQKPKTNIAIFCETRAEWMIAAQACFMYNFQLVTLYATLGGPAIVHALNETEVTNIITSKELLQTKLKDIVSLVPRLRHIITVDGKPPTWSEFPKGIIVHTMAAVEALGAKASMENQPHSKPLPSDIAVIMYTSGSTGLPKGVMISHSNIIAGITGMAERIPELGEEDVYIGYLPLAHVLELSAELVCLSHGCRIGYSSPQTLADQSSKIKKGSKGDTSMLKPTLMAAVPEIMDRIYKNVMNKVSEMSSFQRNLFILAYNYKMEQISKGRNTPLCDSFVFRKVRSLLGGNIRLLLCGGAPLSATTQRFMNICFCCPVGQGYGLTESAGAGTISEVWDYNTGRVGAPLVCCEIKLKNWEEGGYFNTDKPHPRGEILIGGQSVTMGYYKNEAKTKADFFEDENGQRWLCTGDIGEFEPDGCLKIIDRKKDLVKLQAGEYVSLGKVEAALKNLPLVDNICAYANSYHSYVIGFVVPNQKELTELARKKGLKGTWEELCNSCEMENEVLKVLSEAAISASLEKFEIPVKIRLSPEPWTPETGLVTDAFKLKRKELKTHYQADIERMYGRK

As for `CCCCCCCC/C=C\CCCCCCCC(=O)O` [OA, oleic acid], in test [1], the “LC-MS of OA-CoA formed by recombinant ACSL3” value is given as “VA analogues promoted acylation reaction with OA as substrate in the presence of ACSL3”.
On to `CC1=C(/C=C/C(C)=C/C=C/C(C)=C/C(=O)O)C(C)(C)CCC1` [ATRA, all-trans retinoic acid], for which the Kd in test [2] turned out to be 12.8 µM.
Molecule `CNC(=O)/C=C(C)/C=C/C=C(C)/C=C/C1=C(C)CCCC1(C)C` [D3, (2E,4E,6E,8E)-N,3,7-trimethyl-9-(2,6,6-trimethylcyclohex-1-en-1-yl)nona-2,4,6,8-tetraenamide] registered a Kd in test [3] of 1.28 µM.
In turn, `CC1=C(/C=C/C(C)=C/C=C/C(C)=C/CO)C(C)(C)CCC1` [VA, vitamin A] showed a Kd in test [4] of 1.85 µM.
